Source: patent US11154563B2, “Immunoproteasome inhibitors” (Principia Biopharma Inc., priority 2017, dated 2021)

What was measured:
[1] = biological target: constitutive proteasome β5c unit (Homo sapiens, UniProt P20618+P28074); test: Caliper-based proteasome enzymatic activity assay, β5c; type: biochemical; details: human recombinant constitutive proteasome 0.3 nM, FAM-peptide substrate 1 μM, 3 h at rt; read-out: β5c subunit IC50
Method: (§1) A Caliper-based proteasome assay (Caliper Life Sciences, Hopkinton, Mass.) was used to measure inhibition of the immunoproteasome LMP7/B5i subunit, the immunoproteasome LPM2/β1i subunit, and the constitutive proteasome β5c unit for a compound of Formula (I). For LMP7 and β5c, serial dilutions of test compounds were incubated with either human recombinant immunoprotcasome or constitutive proteasome (0.3 nM enzyme) and a carboxyfluorescein (FAM)-labeled peptide substrate FAM-TYETFKSIMKKSPF-NH2 (1 μM) at it for 3 h. The reaction was then terminated with a buffer containing the known proteasome inhibitor carfilzomib at a concentration of 5 uM. For LMP2, serial dilutions of test compounds were incubated with human recombinant immunoproteasome proteasome (0.3 nM enzyme) and a carboxyfluorescein (FAM)-labeled peptide substrate FAM-[…]-NH2 (1 μM) at rt for 2 h. The reaction was then terminated with a buffer containing the known proteasome inhibitor ixazomib at a concentration of 6.7 uM. The reaction buffer was 20 mM Hepes pH 7.4, 0.01% bovine serum albumin, 0.015% SDS, 0.5 mM EDTA, 1%0/DMSO. The peptide cleavage reaction product was quantified on a Caliper LabChip 3000. Percent inhibition was calculated for each compound dilution and the concentration that produced 50% inhibition was calculated. This value is presented as the IC50.

[2] = biological target: immunoproteasome LMP7/B5i subunit (Homo sapiens, UniProt P20618+P28062); test: Caliper-based proteasome enzymatic activity assay, LMP7; type: biochemical; details: human recombinant immunoproteasome 0.3 nM, FAM-peptide substrate 1 μM, 3 h at rt
Method: as §1

Structure (SMILES) | IC50 [1] [µM] | IC50 [2] [µM]
COc1cccc(C[C@H](NC(=O)OC[C@H]2CCCCN2C(=O)C(C#N)=CC(C)(C)C)B(O)O)c1 [Example 77, ((R)-1-(((((R)-1-(2-cyano-4,4-dimethylpent-2-enoyl)piperidin-2-yl)methoxy)carbonyl)amino)-2-(3-methoxyphenyl)ethyl)boronic acid] | > 5 | 0.013
CC(C)(C=C(C#N)C(=O)N1CCCC[C@@H]1COC(=O)N[C@@H](Cc1cccc2ccccc12)B(O)O)N1CCC(F)(F)C1 [Example 106, ((R)-1-(((((R)-1-(2-cyano-4-(3,3-difluoropyrrolidin-1-yl)-4-methylpent-2-enoyl)piperidin-2-yl)methoxy)carbonyl)amino)-2-(naphthalen-1-yl)ethyl)boronic acid] | 2.24 | 0.0052
COc1cccc(C[C@H](NC(=O)OC[C@H]2CCCCN2C(=O)C(C#N)=CC(C)(C)N2CCC(F)(F)C2)B(O)O)c1 [Example 96] | > 5 | 0.0027
CC(C)(C=C(C#N)C(=O)N1CCC[C@]1(C)COC(=O)N[C@@H](Cc1coc2ccccc12)B(O)O)N1CCOCC1 [Example 71, ((R)-2-(benzofuran-3-1)-1-(((((R)-1-(2-cyano-4-methyl-4-morpholinopent-2-enoyl)-2-methylpyrrolidin-2-yl)methoxy)carbonyl)amino)ethyl)boronic acid] | 1.66 | 0.0045
CC(C)(C=C(C#N)C(=O)N1CCOC[C@@H]1COC(=O)N[C@@H](Cc1ccccc1)B(O)O)N1CCC(F)(F)C1 [Example 94, ((R)-1-(((((R)-4-(2-cyano-4-(3,3-difluoropyrrolidin-1-yl)-4-methylpent-2-enoyl)morpholin-3-yl)methoxy)carbonyl)amino)-2-phenylethyl)boronic acid] | 1.76 | 0.002
CC(C)(C)/C=C(\C#N)C(=O)N1CCNC[C@@H]1COC(=O)N[C@@H](Cc1ccccc1)B(O)O [Example 128, ((R)-1-(((((R)-1-((E)-2-cyano-4,4-dimethylpent-2-enoyl)piperazin-2-yl)methoxy)carbonyl)amino)-2-phenylethyl)boronic acid] | 2.73 | 0.0023
CC1(C=C(C#N)C(=O)N2C[C@@H]3C[C@@H]3[C@@H]2COC(=O)N[C@@H](Cc2ccc(F)cc2)B(O)O)CCOCC1 [Example 119, ((R)-1-(((((1S,2R,5R)-3-(2-cyano-3-(4-methyltetrahydro-2H-pyran-4-yl)acryloyl)-3-azabicyclo[3.1.0]hexan-2-yl)methoxy)carbonyl)amino)-2-(4-fluorophenyl)ethyl)boronic acid] | > 5 | > 5
CC(C)(C=C(C#N)C(=O)N1CCCC[C@@H]1COC(=O)N[C@@H](Cc1ccccc1C#N)B(O)O)N1CCC(F)(F)C1 [Example 107, ((R)-1-(((((R)-1-(2-cyano-4-(3,3-difluoropyrrolidin-1-yl)-4-methylpent-2-enoyl)piperidin-2-yl)methoxy)carbonyl)amino)-2-(2-cyanophenyl)ethyl)boronic acid] | > 5 | 0.111
CC(C)(C=C(C#N)C(=O)N1C[C@@H]2C[C@@H]2[C@@H]1COC(=O)N[C@@H](CCc1ccccc1)B(O)O)N1CCC(F)(F)C1 [Example 104, ((R)-1-(((((1S,2R,5R)-3-(2-cyano-4-(3,3-difluoropyrrolidin-1-yl)-4-methylpent-2-enoyl)-3-azabicyclo[3.1.0]hexan-2-yl)methoxy)carbonyl)amino)-3-phenylpropyl)boronic acid] | > 5 | 0.0014
CC(C)(C=C(C#N)C(=O)N1CCOC[C@@H]1COC(=O)N[C@@H](CCc1ccccc1)B(O)O)N1CCC(F)(F)C1 [Example 98, ((R)-1-(((((R)-4-(2-cyano-4-(3,3-difluoropyrrolidin-1-yl)-4-methylpent-2-enoyl)morpholin-3-yl)methoxy)carbonyl)amino)-3-phenylpropyl)boronic acid] | 3.27 | 0.0035
CC(C)(C)/C=C(\C#N)C(=O)N1CC(F)(F)C[C@@H]1COC(=O)N[C@@H](Cc1ccccc1)B(O)O [Example 61, ((R)-1-(((((R)-1-((E)-2-cyano-4,4-dimethylpent-2-enoyl)-4,4-difluoropyrrolidin-2-yl)methoxy)carbonyl)amino)-2-phenylethyl)boronic acid] | 1.49 | 0.0014
Cc1ccc(C[C@H](NC(=O)OC[C@H]2CCCCN2C(=O)C(C#N)=CC(C)(C)N2CCOCC2)B(O)O)cc1 [Example 45, ((R)-1-(((((R)-1-(2-cyano-4-methyl-4-morpholinopent-2-enoyl)piperidin-2-yl)methoxy)carbonyl)amino)-2-(p-tolyl)ethyl)boronic acid] | 0.854 | 0.004

Stronger by IC50 [1], values ahead:

IC50 [1] [µM] | IC50 [2] [µM] | Structure (SMILES)
0.677 | 0.0012 | Cc1ccc(C[C@H](NC(=O)OC[C@H]2[C@H]3C[C@H]3CN2C(=O)C(C#N)=CC(C)(C)C)B(O)O)cc1 [Example 76]
0.225 | 0.0025 | CC(C)(C=C(C#N)C(=O)N1CCCCC[C@@H]1COC(=O)N[C@@H](Cc1coc2ccccc12)B(O)O)N1CCC(F)(F)C1 [Example 72, ((R)-2-(benzofuran-3-yl)-1-(((((R)-1-(2-cyano-4-(3,3-difluoropyrrolidin-1-yl)-4-methylpent-2-enoyl)azepan-2-yl)methoxy)carbonyl)amino)ethyl)boronic acid]
0.57 | 0.0015 | CC(C)(C)C[C@H](NC(=O)OC[C@@]1(C)CCCN1C(=O)C(C#N)=CC(C)(C)N1CCC(F)(F)C1)B(O)O [Example 118, ((R)-1-(((((R)-1-(2-cyano-4-(3,3-difluoropyrrolidin-1-yl)-4-methylpent-2-enoyl)-2-methylpyrrolidin-2-yl)methoxy)carbonyl)amino)-3,3-dimethylbutyl)boronic acid]
0.263 | 0.0071 | CC#CC(=O)N1C[C@@H]2C[C@@H]2[C@@H]1COC(=O)N[C@@H](Cc1coc2ccccc12)B(O)O [Example 88, ((R)-2-(benzofuran-3-yl)-1-(((((1S,2R,5R)-3-(but-2-ynoyl)-3-azabicyclo[3.1.0]hexan-2-yl)methoxy)carbonyl)amino)ethyl)boronic acid]
0.176 | 0.0014 | C[C@H]1CC[C@H](COC(=O)N[C@@H](Cc2coc3ccccc23)B(O)O)N1C(=O)C(C#N)=CC(C)(C)N1CCOCC1 [Example 57, ((R)-2-(benzofuran-3-yl)-1-(((((2R,5S)-1-(2-cyano-4-methyl-4-morpholinopent-2-enoyl)-5-methylpyrrolidin-2-yl)methoxy)carbonyl)amino)ethyl)boronic acid]
0.445 | 0.0029 | Cc1ccc(C[C@H](NC(=O)OC[C@H]2CCCCCN2C(=O)C(C#N)=CC(C)(C)N2CCC(F)(F)C2)B(O)O)cc1 [Example 84, ((R)-1-(((((R)-1-(2-cyano-4-(3,3-difluoropyrrolidin-1-yl)-4-methylpent-2-enoyl)azepan-2-yl)methoxy)carbonyl)amino)-2-(p-tolyl)ethyl)boronic acid]
0.141 | 0.0005 | CC(C)(C=C(C#N)C(=O)N1CCC[C@@H]1COC(=O)N[C@@H](Cc1coc2ccccc12)B(O)O)N1CCC(F)(F)C1 [Example 42, ((R)-2-(benzofuran-3-yl)-1-(((((R)-1-(2-cyano-4-(3,3-difluoropyrrolidin-1-yl)-4-methylpent-2-enoyl)pyrrolidin-2-yl)methoxy)carbonyl)amino)ethyl)boronic acid]
0.55 | 0.0022 | CC(C)(C=C(C#N)C(=O)N1CCCC[C@@H]1COC(=O)N[C@@H](Cc1ccc(S(C)(=O)=O)cc1)B(O)O)N1CCC(F)(F)C1 [Example 124, ((R)-1-(((((R)-1-(2-cyano-4-(3,3-difluoropyrrolidin-1-yl)-4-methylpent-2-enoyl)piperidin-2-yl)methoxy)carbonyl)amino)-2-(4-(methylsulfonyl)phenyl)ethyl)boronic acid]
0.115 | 0.0006 | CC(C)(C)C=C(C#N)C(=O)N1C[C@@H]2C[C@@H]2[C@@H]1COC(=O)N[C@@H](Cc1coc2ccccc12)B(O)O [Example 48, ((R)-2-(benzofuran-3-yl)-1-(((((1S,2R,5R)-3-(2-cyano-4,4-dimethylpent-2-enoyl)-3-azabicyclo[3.1.0]hexan-2-yl)methoxy)carbonyl)amino)ethyl)boronic acid]
0.32 | 0.0025 | C=CC(=O)N1CC(F)(F)C[C@@H]1COC(=O)N[C@@H](Cc1coc2ccccc12)B(O)O [Example 91, ((R)-1-(((((R)-1-acryloyl-4,4-difluoropyrrolidin-2-yl)methoxy)carbonyl)amino)-2-(benzofuran-3-yl)ethyl)boronic acid]
0.128 | 0.0011 | CC(C)(C=C(C#N)C(=O)N1CCCC[C@@H]1COC(=O)N[C@@H](Cc1coc2ccccc12)B(O)O)N1CCC(F)(F)C1 [Example 47]
0.64 | 0.0008 | CC(C)(C=C(C#N)C(=O)N1CCC[C@]1(C)COC(=O)N[C@@H](Cc1coc2ccccc12)B(O)O)N1CCC(F)(F)C1 [Example 117, ((R)-2-(benzofuran-3-yl)-1-(((((R)-1-(2-cyano-4-(3,3-difluoropyrrolidin-1-yl)-4-methylpent-2-enoyl)-2-methylpyrrolidin-2-yl)methoxy)carbonyl)amino)ethyl)boronic acid]
